In article PMC8546689, “High-Throughput Screen for Inhibitors of the Type IV Pilus Assembly ATPase PilB” (mSphere, 2021):

Columns and labels:
Format in all cases: binding
[1] = target: T1, PilB (CtPilB), type IV pilus assembly ATPase (Chloracidobacterium thermophilum, UniProt G2LDI3); assay: fluorescence enhancement titration of MANT-ATP with CtPilB
T1 construct: gene Cabther_A1696

[2] = target: T1, PilB (CtPilB), type IV pilus assembly ATPase; assay: competitive displacement of fluorescent MANT-ATP
[3] = target: T1, PilB (CtPilB), type IV pilus assembly ATPase; assay: competitive displacement of fluorescent MANT-ATP (IC50 […])

T1 sequence (G2LDI3 entry or part of it): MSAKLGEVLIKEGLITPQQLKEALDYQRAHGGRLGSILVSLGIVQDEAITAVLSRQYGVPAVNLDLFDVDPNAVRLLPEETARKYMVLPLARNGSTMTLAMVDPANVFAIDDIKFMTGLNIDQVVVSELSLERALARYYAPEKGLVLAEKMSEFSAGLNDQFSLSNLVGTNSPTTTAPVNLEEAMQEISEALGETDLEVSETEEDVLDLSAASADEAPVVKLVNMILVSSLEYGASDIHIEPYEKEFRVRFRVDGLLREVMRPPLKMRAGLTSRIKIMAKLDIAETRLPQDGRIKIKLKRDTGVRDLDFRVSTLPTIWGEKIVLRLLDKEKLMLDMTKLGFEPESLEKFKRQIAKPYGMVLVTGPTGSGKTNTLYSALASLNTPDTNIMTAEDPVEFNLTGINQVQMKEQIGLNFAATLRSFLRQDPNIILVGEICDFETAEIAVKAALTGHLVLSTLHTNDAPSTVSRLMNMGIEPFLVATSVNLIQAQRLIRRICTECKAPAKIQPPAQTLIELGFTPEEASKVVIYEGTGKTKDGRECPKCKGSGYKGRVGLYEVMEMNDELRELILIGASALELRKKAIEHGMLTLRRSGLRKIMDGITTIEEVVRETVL

Question: For CNc1ccccc1C(=O)O[C@H]1[C@@H](O)[C@H](n2cnc3c(N)ncnc32)O[C@@H]1CO[P@@](=O)(O)O[P@](=O)(O)OP(=O)(O)O [MANT-ATP], which Kd [1] is on record?
Answer: 290 ± 10 nM

Question: For Nc1ncnc2c1ncn2[C@@H]1O[C@H](COP(=O)(O)OP(=O)(O)O)[C@@H](O)[C@H]1O [ADP], which IC50 [2] is on record?
Answer: 3070 nM

Question: Nc1ncnc2c1ncn2[C@@H]1O[C@H](COP(=O)(O)OP(=O)(O)OP(=O)(O)O)[C@@H](O)[C@H]1O [ATP] was tested. Which Ki [3] did it give?
Answer: 2200 nM
